Test results from patent publication US6828345B2, “O-substituted 6-methyltramadol derivatives” (Gruenenthal GmbH, priority 2000, dated 2004).

Experiments:
[1] = test system: tail-flick pain latency in mice; experiment: Tail-flick (focussed beam) test on mice; type: in vivo, NMR mice; details: for ED50: Mus musculus
Description: The analgesic effectiveness of the compounds according to the invention was investigated by the focussed beam (tail-flick) test in mice according to the method developed by D'Amour and Smith (J. Pharmaceutical. Exp. Ther. 72, 74 79 (1941)). NMR mice weighing between 20 and 24 g were used for this purpose. The animals were placed individually in special test cages and the base of the tail was subjected to a focused beam of light from an electric lamp (tail-flick type 55/12/10.fl, Labtec, Dr Hess). The lamp intensity was adjusted so that the time from when the lamp was switched on to the sudden withdrawal of the tail (pain latency) was 3 to 5 seconds in the case of untreated animals. Before administration of a compound according to the invention the animals were pre-tested twice within 5 minutes and the mean value of these measurements was calculated as a pre-test mean value. The pain measurements were carried out 20, 40 and 60 minutes after intravenous administration. The analgesic action was calculated as the increase in the pain latency (% MPE) according to the following formula: […]
Here T0 is the latency time before application of the substance and T1 the latency time after application of the substance, and T2 is the maximum exposure time (12 sec).
In order to determine the dose dependence the respective compound according to the invention was applied in 3 to 5 logarithmically increasing doses that included in each case the threshold dose and the maximal effect dose, and the ED50 values were determined by means of regression analysis. The ED50 calculation was carried out at the effect maximum 20 minutes after intravenous administration of the substance.

[2] = test system: phenylquinone-induced writhing reaction in mice; experiment: Phenylquinone-induced writhing test in mice; type: in vivo, Male NMRI mice; details: orally, phenylquinone i.p. 30 minutes after oral administration, writhing counted 5-20 minutes after phenylquinone; for ED50: Mus musculus, read-out: ED50 writhing inhibition
Experimental: The analgesic effectiveness of the compounds according to the invention was investigated in mice using the phenylquinone-induced writhing test as modified by I. C. Hendershot, J. Forsaith in J. Pharmacol. Exptl. Ther. 125, 237 (1959). Male NMRI mice weighing between 25 and 30 g were used for this purpose. Groups of 10 animals per substance dose received intraperitoneally 30 minutes after oral administration of a compound according to the invention, 0.3 ml per mouse of a 0.02% aqueous phenylquinone solution (phenylbenzoquinone, from Sigma, Deisenhofen; solution prepared by addition of 5% ethanol and storage in a water bath at 45° C.). The animals were then placed individually in observation cages. The number of pain-induced stretching movements (writhing reaction=contortion of the body accompanied by stretching of the rear extremities) was counted using a push-button counter 5-20 minutes after administration of the phenylquinone. The ED50 values (effective dose with 50% inhibition of the writhing reaction) were calculated with 95% level of confidence by means of regression analysis (evaluation program from Martens EDV-Service, Ekental) from the dose-dependent reduction in the writhing reaction compared to mice investigated in parallel to which only phenylquinone had been administered.

[3] = iv, 20 min, i.v., effect maximum 20 minutes after intravenous administration
[4] = i.v., effect maximum 20 minutes after intravenous administration

Row | SMILES | ED50 [1, 3] [mg/kg] | ED50 writhing inhibition [2] [mg/kg] | other results
1 | COc1cccc(C2(O)C(C)CCCC2CN(C)C)c1 (racemic) [Example 1, 2-dimethylaminomethyl-1-(3-methoxyphenyl)-6-methylcyclohexanol] | 5.6 | – | –
2 | CCOc1cccc(C2(O)C(C)CCCC2CN(C)C)c1 (racemic) [Example 2, 2-dimethylaminomethyl-1-(3-ethoxyphenyl)-6-methylcyclohexanol] | 11.9 | – | –
3 | CC1CCCC(CN(C)C)C1(O)c1cccc(O)c1 (racemic) [Example 3, 3-(2-dimethylaminomethyl-1-hydroxy-6-methyl-cyclohexyl)phenol] | 2.15 | 2.09 | –
4 | C=CCOc1cccc(C2(O)C(C)CCCC2CN(C)C)c1 (racemic) [Example 4, 1-(3-allyloxyphenyl)-2-dimethylaminomethyl-6-methylcyclohexanol] | 20.2 | – | ED50 [2]: 9.38 mg/kg
5 | CC1CCCC(CN(C)C)C1(O)c1cccc(O)c1 (racemic) [Example 8, 3-(2-dimethylaminomethyl-1-hydroxy-6-methylcyclohexyl)-phenol] | – | 14.0 | –
6 | COc1cccc(C2(O)C(C)CCCC2CN(C)C)c1 (stereo not drawn) [Example 5, 2-dimethylaminomethyl-1-(3-methoxyphenyl)-6-methylcyclohexanol] | – | – | ED50 ([1]; po, orally (cell note)): 42.9 mg/kg; ED50 [2]: 11 mg/kg
7 | COc1cccc(C2(O)C(C)CCCC2CN(C)C)c1 (stereo not drawn) [Example 6, 2-dimethylaminomethyl-1-(3-methoxyphenyl)-6-methylcyclohexanol] | 7.73 | 6.58 | –
8 | CC1CCCC(CN(C)C)C1(O)c1cccc(O)c1 (stereo not drawn) [Example 9, 3-(2-dimethylaminomethyl-1-hydroxy-6-methylcyclohexyl)-phenol] | – | 19.8 | ED50 tail-flick [1, 4]: 14.7 mg/kg
9 | CC1CCCC(CN(C)C)C1(O)c1cccc(O)c1 (stereo not drawn) [Example 10, 3-(2-dimethylaminomethyl-1-hydroxy-6-methylcyclohexyl)-phenol] | – | 5.3 | ED50 tail-flick [1, 4]: 0.91 mg/kg
10 | CCOc1cccc(C2(O)C(C)CCCC2CN(C)C)c1 (stereo not drawn) [Example 11, 2-dimethylaminomethyl-1-(3-ethoxyphenyl)-6-methylcyclohexanol] | – | 21.6 | –
11 | CCOc1cccc(C2(O)C(C)CCCC2CN(C)C)c1 (stereo not drawn) [Example 12, 2-dimethylaminomethyl-1-(3-ethoxyphenyl)-6-methylcyclohexanol] | 13.4 | 4.39 | –
12 | CC1CCCC(CN(C)C)C1(O)c1cccc(OC2CCCC2)c1 (stereo not drawn) [Example 14, 1-(3-cyclopentyloxyphenyl)-2-dimethylaminomethyl-6-methylcyclohexanol] | 20 | – | ED50 [2]: 26.2 mg/kg
13 | CC1CCCC(CN(C)C)C1(O)c1cccc(OCC2CCC2)c1 (stereo not drawn) [Example 16, 1-(3-cyclobutylmethoxyphenyl)-2-dimethylaminomethyl-6-methylcyclohexanol] | 21.5 | – | ED50 [2]: 32.8 mg/kg
14 | C#COc1cccc(C2(O)C(C)CCCC2CN(C)C)c1 (stereo not drawn) [Example 19, 2-dimethylaminomethyl-1-(3-ethynyloxyphenyl)-6-methylcyclohexanol] | 14.7 | – | –
15 | CC1CCCC(CN(C)C)C1(O)c1cccc(OC2CCC2)c1 (stereo not drawn) [Example 21, 1-(3-cyclobutoxyphenyl)-2-dimethylaminomethyl-6-methylcyclohexanol] | 30 | – | –
